# From ChEMBL document CHEMBL1141465, “The design, synthesis and structure-activity relationships of 1-aryl-4-aminoalkylisoquinolines: a novel series of CRF-1 receptor antagonists” (Bioorg Med Chem Lett, 2008)
# pKi: −log10 of the molar value.
# What was measured:
# [1] = Solubility at pH 5.4; assay type: physicochemical; settings: buffer
# [2] = molecular target: T1, Corticotropin-releasing factor receptor 1 (Homo sapiens, UniProt P34998); assay: Displacement of [125I]sauvagine from CRF1 receptor expressed in human IMR32 cells; assay type: cell-based, IMR-32
# T1 sequence (P34998 whole entry): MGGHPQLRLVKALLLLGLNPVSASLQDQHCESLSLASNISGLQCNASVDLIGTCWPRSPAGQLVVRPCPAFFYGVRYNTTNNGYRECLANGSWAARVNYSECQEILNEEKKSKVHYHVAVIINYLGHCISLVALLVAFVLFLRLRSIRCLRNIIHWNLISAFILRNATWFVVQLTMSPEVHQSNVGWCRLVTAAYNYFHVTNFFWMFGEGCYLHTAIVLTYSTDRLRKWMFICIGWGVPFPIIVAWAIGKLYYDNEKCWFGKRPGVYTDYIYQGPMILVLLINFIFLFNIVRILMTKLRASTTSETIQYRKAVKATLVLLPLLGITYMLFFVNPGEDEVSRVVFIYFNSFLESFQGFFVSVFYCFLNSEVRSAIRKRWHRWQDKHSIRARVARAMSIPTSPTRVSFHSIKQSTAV
# [3] = Cmax in po dosed rat; assay type: ADME, organism-based; design: route oral; settings: in vivo
# [4] = Clearance in po dosed rat; assay type: ADME, organism-based; settings: in vivo
# [5] = Partition coefficient, log P of the compound; assay type: physicochemical; settings: octanol/water
# Rattus norvegicus = assay: Volume of distribution in po dosed rat; assay type: ADME, organism-based; settings: in vivo
# [6] = Oral bioavailability of rat at 20 mg/kg; assay type: ADME, organism-based; settings: in vivo
# [7] = Half life in po dosed rat; assay type: ADME, organism-based; settings: in vivo
# [8] = Half life in rat liver microsomes; assay type: ADME, Microsome
# [9] = Tmax in po dosed rat; assay type: ADME, organism-based; settings: in vivo
Compound,solubility [1],pKi [2],other results
COc1cc(C)cc(C)c1-c1nc(C)c(NCCN2CCCC2)c2ccccc12,103 µg/mL,< 5.00,
CCCN(CCn1ccnc1)c1c(C)nc(-c2c(C)cc(C)cc2OC)c2ccccc12,107 µg/mL,5.97,
CCCN(CCC)c1c(C)nc(-c2c(C)cc(C)cc2OCCN(C)C)c2ccccc12,112 µg/mL,6.58,
CCCN(CCC)c1c(C)nc(-c2c(C)cc(C)cc2OCCN2CCN(C)CC2)c2ccccc12,135 µg/mL,6.28,
CCCN(CCC)c1c(C)nc(-c2c(C)cc(C)cc2OCCN2CCCC(O)C2)c2ccccc12 (stereo unspecified),131 µg/mL,7.49,
CCCN(CCC)c1c(C)nc(-c2ccc(Cl)cc2)c2ccccc12,,6.02,
CCCN(CCC)c1c(C)nc(-c2ccc(Cl)cc2C)c2ccccc12,,7.68,
CCCN(CCC)c1c(C)nc(-c2ccc(OC)cc2CC)c2ccccc12,,7.44,
CCCN(CCC)c1c(C)nc(-c2ccc(OC)cc2OC)c2ccccc12,,7.38,
CCCN(CCC)c1c(C)nc(-c2c(OC)cc(C(F)(F)F)cc2C(F)(F)F)c2ccccc12,< 0.5 µg/mL,8.10,Cmax [3]: 387 ng/mL; CL/F [4]: 14.5 mL/min/kg; logP [5]: 5.7; Vd (Rattus norvegicus): 13 L/kg; bioavailability [6]: 4.8%; half-life [7]: 324 min; half-life [8]: 36 min; Tmax [9]: 42 min
CCCN(CCC)c1c(C)nc(-c2c(C)cc(OC)cc2C)c2ccccc12,,7.59,
CCCN(CCC)c1cnc(-c2c(C)cc(C)cc2OC)c2ccccc12,,7.31,
COc1cc(C)cc(C)c1-c1nc(C)c(N(CC2CC2)CC2CC2)c2ccccc12,< 0.5 µg/mL,8.15,
CCCN(CCC)c1c(C)nc(-c2ccccc2Cl)c2ccccc12,,5.77,
CCCN(CCC)c1c(C)nc(-c2ccc(OC)cc2C)c2ccccc12,,7.55,
CCCN(CC1CC1)c1c(C)nc(-c2c(C)cc(C)cc2OC)c2ccccc12,< 0.5 µg/mL,8.30,
CCCN(CCC)c1c(C)nc(-c2c(C)cc(C)cc2OCCN2CCCC2)c2ccccc12,105 µg/mL,6.76,
CCCN(CCC)c1c(C)nc(-c2c(C)cc(C)cc2OCCN2CCOCC2)c2ccccc12,,7.52,

# The next lines start with results.
solubility [1],pKi [2],Compound,other results
27 µg/mL,6.92,CCCN(CCC)c1c(C)nc(-c2c(C)cc(C)cc2OCCN2CCCCC2)c2ccccc12,
125 µg/mL,7.39,CCCN(CCC)c1c(C)nc(-c2c(C)cc(C)cc2OCCN2CCC(O)CC2)c2ccccc12,
,6.99,CCCN(CCC)c1c(C)nc(-c2ccc(Cl)cc2Cl)c2ccccc12,
,< 5.00,CCCN(CCC)c1c(C)nc(-c2ccccc2)c2ccccc12,
,< 5.00,CCCN(CCC)c1c(C)nc(-c2cccc(Cl)c2)c2ccccc12,
,7.77,CCCN(CCC)c1c(C)nc(-c2ccc(OC(F)F)cc2OC)c2ccccc12,
,8.05,CCCN(CCC)c1c(CC)nc(-c2c(C)cc(C)cc2OC)c2ccccc12,
,6.78,CCCNc1c(C)nc(-c2c(C)cc(C)cc2OC)c2ccccc12,
120 µg/mL,6.67,CCCN(CCN1CCCC1)c1c(C)nc(-c2c(C)cc(C)cc2OC)c2ccccc12,
< 0.5 µg/mL,8.22,CCCN(CCC)c1c(C)nc(-c2c(C)cc(C)cc2OC)c2ccccc12,logP [5]: 4.6; half-life [8]: 4 min
